Measurements as given in ChEMBL document CHEMBL4406815, “Natural product derived promising anti-MRSA drug leads: A review” (Bioorg Med Chem, 2019).
Converted amounts (≈) assume the structure as drawn.

Tests used:
Staphylococcus aureus [1] = assay: Antibacterial activity against methicillin-resistant Staphylococcus aureus ATCC 43300 after 18 hrs; assay type: functional, organism-based; conditions: ATCC 43300, 18 h
[2] = Inhibition of methicillin-resistant Staphylococcus aureus pyruvate kinase
Staphylococcus aureus [3] = assay: Antibacterial activity against methicillin-resistant Staphylococcus aureus; assay type: functional
Staphylococcus aureus [4] = assay: Bactericidal activity against methicillin-resistant Staphylococcus aureus; assay type: functional
[5] = Cytotoxicity against African green monkey Vero cells assessed as reduction in cell viability by MTT assay; assay type: cell-based; conditions: chlorocebus sabaeus, read-out: MIC
Staphylococcus aureus [6] = assay: Antimicrobial activity against Staphylococcus aureus ATCC 6538 after 24 hrs by colony counting method; assay type: functional; conditions: ATCC 6538, 24 h
Staphylococcus aureus [7] = assay: Antibacterial activity against methicillin-resistant Staphylococcus aureus TISTR 1466 by two-fold serial dilution method; assay type: functional
Staphylococcus aureus [8] = assay: Antibacterial activity against methicillin-resistant Staphylococcus aureus ATCC 43300; assay type: functional
Staphylococcus aureus [9] = assay: Antibacterial activity against methicillin-resistant Staphylococcus aureus ATCC 33591; assay type: functional
Staphylococcus aureus [10] = assay: Antibacterial activity against methicillin-resistant Staphylococcus aureus SK1 by two-fold serial dilution method; assay type: functional
Staphylococcus aureus [11] = assay: Antibacterial activity against methicillin-sensitive Staphylococcus aureus ATCC 25923 after 24 to 72 hrs by two-fold serial dilution method; assay type: functional
Staphylococcus aureus [12] = assay: Antibacterial activity against methicillin resistant Staphylococcus aureus BAA 1762 after 24 to 72 hrs by two-fold serial dilution method; assay type: functional
Staphylococcus aureus [13] = assay: Antibacterial activity against methicillin-resistant Staphylococcus aureus CGMCC 1.12409; assay type: functional
Erythrocyte = assay: Hemolytic activity against human erythrocytes; assay type: ADME, cell-based
HT-29 = assay: Cytotoxicity against human HT-29 cells assessed as reduction in cell viability after 24 hrs by MTS assay; assay type: functional, cell-based; conditions: HT-29, 24 h

With COc1c(-c2ccc(O)c(O)c2)oc2cc(O)cc(O)c2c1=O [3-O-METHYLQUERCETIN] the IC50 (Staphylococcus aureus [1]) was 6.4 µM.

In the case of O=C1NC[C@@H](c2c[nH]c3cc(Br)ccc23)N[C@H]1c1c[nH]c2cc(Br)ccc12 (relative stereo) [CIS-3,4-DIHYDROHAMACANTHIN B], the IC50 [2] is reported as 0.016 to 0.06 µM and the MIC (Staphylococcus aureus [3]) is reported as 12.5 mg/L.

COc1ccc2cc1Oc1ccc(cc1)C[C@H]1c3cc(c(OC)cc3CCN1C)Oc1c(O)c(OC)cc3c1[C@H](C2)N(C)CC3 [FANGCHINOLINE] gave an MIC (Staphylococcus aureus [4]) of 256 to 1020 mg/L (≈ 421 to 1680 µM) and an MIC (Staphylococcus aureus [3]) of 6 to 128 mg/L.

In the case of CCCC(=O)C1=C(O)C(C)(C)C(O)=C(Cc2c(O)c(C)c(OC)c(C(=O)CCC)c2O)C1=O, the MCC [5] is reported as 48.1 µg/mL and the MIC (Staphylococcus aureus [6]) is reported as 15 to 62 mg/L (≈ 32.6 to 135 µM).

C=C(C)/C=C/c1c(C(=O)OC)cc(O)c2[nH]c3ccccc3c12 gave an MIC (Staphylococcus aureus [7]) of 4 mg/L (≈ 13 µM).

In the case of CCCCCCC(C)/C=C(\C)C(=O)O[C@@]1(C)C(=O)C2=COC(c3c(C)cccc3O)=CC2=C(Cl)C1=O (stereo not given in full), the MIC (Staphylococcus aureus [8]) is reported as 3.13 to 6.25 mg/L (≈ 6.1 to 12.2 µM) and the MIC (Staphylococcus aureus [9]) is reported as 3.13 to 6.25 mg/L (≈ 6.1 to 12.2 µM).

Work on CCCCCCC(C)/C=C(\C)C(=O)O[C@@]1(C)C(=O)C2=COC(C3=C(C)CC(O)CC3=O)=CC2=C(Cl)C1=O (stereo not given in full) yielded an MIC (Staphylococcus aureus [8]) of 3.13 to 6.25 mg/L (≈ 5.89 to 11.8 µM) and an MIC (Staphylococcus aureus [9]) of 3.13 to 6.25 mg/L (≈ 5.89 to 11.8 µM).

Work on C=C(C)C1Cc2c(cc(OC)c3[nH]c4ccccc4c23)C(=O)O1 (stereo not given) [CLAUSAMINE B] yielded an MIC (Staphylococcus aureus [10]) of 0.25 mg/L (≈ 0.813 µM) and an MIC (Staphylococcus aureus [7]) of 8 mg/L (≈ 26 µM).

In the case of COc1ccc2cc1Oc1ccc(cc1)C[C@H]1c3cc(c(OC)cc3CCN1C)Oc1c(OC)c(OC)cc3c1[C@H](C2)N(C)CC3 [FANCHININ], the MIC (Staphylococcus aureus [4]) is reported as 256 to 1020 mg/L (≈ 411 to 1640 µM) and the MIC (Staphylococcus aureus [3]) is reported as 6 to 128 mg/L.

With COC(=O)/C=C/C(=O)c1ccc(Cl)cc1 the MIC (Staphylococcus aureus [11]) was 0.35 to 0.75 mg/L (≈ 1.56 to 3.34 µM) and the MIC (Staphylococcus aureus [12]) was 0.35 to 0.75 mg/L (≈ 1.56 to 3.34 µM).

With CC1=C[C@H]2c3c(O)c(O)c4oc5cc(O)cc(O)c5c(=O)c4c3[C@H](c3cc(O)c(O)c4oc5cc(O)cc(O)c5c(=O)c34)[C@H]2C(C)(C)C1 the MIC (Staphylococcus aureus [8]) was 3.9 mg/L (≈ 5.98 µM) and the MIC (Staphylococcus aureus [13]) was 3.9 mg/L (≈ 5.98 µM).

In the case of COc1c(OCCCCN)cc2oc3cc(OCCCCN)c(CC=C(C)C)c(O)c3c(=O)c2c1CC=C(C)C, the MHC (Erythrocyte) is reported as 80.2 µg/mL and the MIC (Staphylococcus aureus [3]) is reported as 1560 to 3120 µM.

With CN[C@H](CC(C)C)C(=O)N[C@H]1C(=O)N[C@@H](CC(N)=O)C(=O)N[C@H]2C(=O)N[C@H]3C(=O)N[C@H](C(=O)N[C@H](C(=O)O)c4cc(O)cc(O)c4-c4cc3ccc4O)[C@H](O)c3ccc(c(Cl)c3)Oc3cc2cc(c3O[C@@H]2O[C@H](CO)[C@@H](O)[C@H](O)[C@H]2O[C@H]2C[C@](C)(N)[C@H](O)[C@H](C)O2)Oc2ccc(cc2Cl)[C@H]1O [VANCOMYCIN] the MIC (Staphylococcus aureus [3]) was 1.25 mg/L.

With CCCCOc1c(OC)cc(/C=C2\SC(=O)NC2=O)c2c1CN1CCc3cc4c(cc3C1C2)OCO4 (stereo not given) the MIC (Staphylococcus aureus [3]) was 8 µM.

In the case of O=c1cc(-c2ccc(O)c(O)c2)oc2cc(O)cc(O)c12 [LUTEOLIN], the IC50 (HT-29) is reported as 45 µM.

For CCCCCCC(C)/C=C(\C)C(=O)O[C@@]1(C)C(=O)C=C2C=C(c3c(C)cccc3O)OC=C2C1=O (stereo not given in full), the MIC (Staphylococcus aureus [8]) was 3.13 to 6.25 mg/L (≈ 6.54 to 13.1 µM) and the MIC (Staphylococcus aureus [9]) was 3.13 to 6.25 mg/L (≈ 6.54 to 13.1 µM).

In the case of COc1ccc2c(c1OC)C(O)N(C)c1c-2ccc2cc3c(cc12)OCO3 (stereo not given), the MBC (Staphylococcus aureus [4]) is reported as 1.95 to 62.5 mg/L (≈ 5.34 to 171 µM) and the MIC (Staphylococcus aureus [3]) is reported as 0.49 to 15.6 mg/L.

In the case of COc1cc(OC)c(C2COc3c(cc(/C=C/C(=O)c4ccco4)c4c3C=CC(C)(C)O4)C2)cc1/C=C/C(=O)c1ccco1 (stereo not given), the MIC (Staphylococcus aureus [3]) is reported as 12.5 mg/L.
